# Source: patent US20170296573A1, “ANTITUMOR DRUG COMPRISING BETA-CYCLODEXTRIN” (JRC G. K., priority 2014, published 2017)
# B1: TRAIL: TNF-related apoptosis-inducing ligand (protein, UniProt P50591 1-281, looked up)
# Tumor necrosis factor ligand …: MAMMEVQGGPSLGQTCVLIVIFTVLLQSLCVAVTYVYFTNELKQMQDKYSKSGIACFLKEDDSYWDPNDEESMNSPCWQVKWQLRQLVRKMILRTSEETISTVQEKQQNISPLVRERGPQRVAAHITGTRGRSNTLSSPNSKNEKALGRKINSWESSRSGHSFLSNLHLRNGELVIHEKGFYYIYSQTYFRFQEEIKENTKNDKQMVQYIYKYTSYPDPILLMKSARNSCWSKDAEYGLYSIYQGGIFELKENDRIFVSVTNEHLIDMDHEASFFGAFLVG
# Columns and labels:
# [1] = system: AKT; experiment: Example 10 Test A: AKT activation in UOK121 cells with α-, β-, γ-cyclodextrins; assay type: cell-based, human; conditions: 10% serum, 5 mM or 10 mM cyclodextrin, 45 minutes
# Procedure: (§1) We ran 20 μg of proteins per lane for western blots. We ran 8, 10, 12.5 and 15% gels depending on the size of proteins being detected by western blots. When there are two proteins having a similar size, gel is flowed in each protein to make western blot analysis about each protein. The immunoprecipitation was undergone by adding 200 μg of protein from solubilized cells and Protein G Sepharose or Protein A Sepharose (Sigma P3296/P9242) pre-conjugated with immunoprecipitation antibody to a buffer for immunoprecipitation, and slowly rotating the tube containing the sample buffer at 4° C. overnight. The buffer for immunoprecipitation comprises 20 mM Tris Ph 7.5, 1% Triton-X100, 150 mM NaCl, phosphatase inhibitor cocktail (Cell Signaling (#58709S)), and 10% glycerol. […] The precipitate in the solution was separated with 15% SDS-PAGE or 12.5% SDS-PAGE and analyzed by Western blotting.
# (Test A) UOK121 cells were incubated in 10% serum medium with 5 mM or 10 mM α-, β-, and γ-cyclodextrins for 45 minutes. […] The cells were harvested and analyzed by Western Blots for the phosphorylation of AKT and ERK1/2 as an indicator of the AKT and ERK1/2 activations. […] 2.5 hours after adding each cyclodextrin (i.e., 2 hours after adding ABT-263), all the cells were washed with the medium twice, and next day the live cells were counted by trypan-blue dye exclusion assay.
# [2] = system: UOK121 cells; experiment: Example 10 Test B: cyclodextrin with 2DG-ABT in UOK121 cells, live cells by trypan-blue dye exclusion; assay type: cell-based, human; conditions: 10 mM 2DG, 10 mM cyclodextrin, 0.3 μM ABT-263, 25 mM glucose
# Procedure: (§2) Dead and live cells were counted by trypan-blue dye exclusion methods. These experiments were done in triplicate, and the error bars indicate the standard deviation.
# (Test A) UOK121 cells were incubated in 10% serum medium with 5 mM or 10 mM α-, β-, and γ-cyclodextrins for 45 minutes. The same medium without any cyclodextrin was also incubated as a control. The cells were harvested and analyzed by Western Blots for the phosphorylation of AKT and ERK1/2 as an indicator of the AKT and ERK1/2 activations. (Test B) 10 mM 2DG was added to a medium of U0K121 cells in the presence of 25 mM glucose, and the medium was incubated for 1.5 hours. To the medium was added 10 mM α-, β-, or γ-cyclodextrin, and the medium was incubated for 30 minutes. Then, 0.3 μM ABT-263 was added thereto, and the medium was further incubated for 2 hours. Separately, a control that includes only α-, β-, or γ-cyclodextrin without 2DG or ABT-263, and another control that includes neither α-, β-, or γ-cyclodextrin, nor 2DG or ABT-263 were prepared. 2.5 hours after adding each cyclodextrin (i.e., 2 hours after adding ABT-263), all the cells were washed with the medium twice, and next day the live cells were counted by trypan-blue dye exclusion assay.
# [3] = system: AKT; experiment: Example 1 Test A: IGF1-stimulated AKT phosphorylation in HeLa cells, Western blot; assay type: cell-based; conditions: serum-free, 7 mM bCD (MBCD) 30 minutes, 20 ng/mL IGF1 20 minutes
# Procedure: as §1
# (§3) (Test A) HeLa cells were incubated in serum-free medium with 0, 1.75, 3.5, and 7.0 mM bCD for 30 minutes, which were prepared in duplicate in each bCD concentration. […] The cells were harvested and analyzed by Western Blots for phosphor-serine AKT and AKT, in which the phosphorylation of AKT was used as an indicator of the AKT activation. […] The cells were harvested and analyzed by Western Blots about EGFR, IGF1R, ERK, PI3K, and AKT, as well as each phosphorylation thereof. […]
# [4] = system: PI3K-AKT pro-survival signals; experiment: Example 1 Tests B and C: EGF or IGF1 challenge of HeLa cells, Western blot for EGFR, IGF1R, PI3K, AKT phosphorylation; assay type: cell-based; conditions: 10 mM bCD (MBCD) 30 minutes, then 100 ng/mL EGF or 10 ng/mL IGF1
# Procedure: as §1, §3
# [5] = system: RTK-Ras-ERK signals; experiment: Example 1 Tests B and C: ERK signals in EGF or IGF1 challenged HeLa cells, Western blot; assay type: cell-based; conditions: 10 mM bCD (MBCD) 30 minutes, then EGF or IGF1
# Procedure: as §1, §3
# [6] = system: AKT; experiment: Example 3 Method B: AKT phosphorylation in RCC4 cells in 10% serum; assay type: cell-based; conditions: 10 mM 2DG 2 hours, 10 mM bCD (MBCD) last 30 minutes
# Procedure: (§4) We ran 20 μg of proteins per lane for western blots. We ran 8, 10, 12.5 and 15% gels depending on the size of proteins being detected by western blots. When there are two proteins having a similar size, gel is flowed in each protein to make western blot analysis about each protein. The immunoprecipitation was undergone by adding 200 μg of protein from solubilized cells and Protein G Sepharose or Protein A Sepharose (Sigma P3296/P9242) pre-conjugated with immunoprecipitation antibody to a buffer for immunoprecipitation, and slowly rotating the tube containing the sample buffer at 4° C. overnight. The buffer for immunoprecipitation comprises 20 mM Tris Ph 7.5, 1% Triton-X100, 150 mM NaCl, phosphatase inhibitor cocktail (Cell Signaling (#58709S)), and 10% glycerol. Next morning, the content in the tube was centrifuged. The precipitate was washed with the same buffer twice and dissolved in SDS buffer. The precipitate in the solution was separated with 15% SDS-PAGE or 12.5% SDS-PAGE and analyzed by Western blotting.
# RCC4 cells were incubated with or without 10 mM 2DG for 2 hours in the presence of 10% serum. In the last 30 minutes, each one subset of cells treated/untreated with 2DG was exposed to 10 mM bCD before the cells were harvested and analyzed.
# [7] = system: AKT; experiment: Example 3 Method C: recovery of AKT activities in HeLa cells after bCD washout; assay type: cell-based; conditions: 10 mM bCD (MBCD) one hour, washed, 10% serum, up to 120 minutes
# Procedure: as §4
# HeLa cells were incubated with 10 mM bCD for one hour in the presence of 10% serum before the cells were washed and re-incubated in medium containing 10% serum for the indicated period (˜120 minutes).
# [8] = system: IGF1-induced hypoglycemia; experiment: Example 4: IGF1-induced hypoglycemia in mice; assay type: in vivo; conditions: five-hour starved mice, 40 μg bCD (HPBCD) 30 minutes before 100 ng IGF1, glucose after thirty minutes
# Procedure: Five-hour starved mice were either pre-treated with 40 μg bCD for 30 minutes, or without. They were then injected with 100 ng IGF1. After thirty minutes, the blood glucose levels were measured by drawing blood from each mouse tail. The experiments were performed in triplicate samples and the error bars indicate the standard deviation. The mice were all about 20 g.
# [9] = system: AKT; experiment: Example 6 Test A: AKT phosphorylation, HeLa cervical cancer cells; assay type: cell-based; conditions: 10 mM bCD (MBCD) 30 minutes, 25 mM glucose
# Procedure: as §1, with “overnight.” for “overnight. The buffer for immunoprecipitation comprises 20 mM Tris Ph 7.5, 1% Triton-X100, 150 mM NaCl, phosphatase inhibitor cocktail (Cell Signaling (#58709S)), and 10% glycerol.”
# (§5) (Test A) HeLa cervical cancer cells, UOK121 renal cancer cells, Panc-1 pancreatic cancer cells, and A431 squamous cancer cells were untreated, pre-treated with 10 mM 2DG, co-incubated with 10 mM bCD for the last 30 minutes, or both-treated with the 10 mM 2DG and the 10 mM bCD, in the presence of 25 mM glucose contained in the media. Each cell was harvested and analyzed by Western Blotting. (Test B) The same samples of A431 cell lysates in Test A were analyzed for EGFR activation, ERK1/2 activation, and PI3K activation. […] The cells were harvested and the live cells were counted by trypan-blue dye exclusion assay. […]
# [10] = system: AKT; experiment: Example 6 Test A: AKT phosphorylation, UOK121 renal cancer cells; assay type: cell-based, human; conditions: 10 mM bCD (MBCD) 30 minutes, 25 mM glucose
# Procedure: as §1, with “overnight.” for “overnight. The buffer for immunoprecipitation comprises 20 mM Tris Ph 7.5, 1% Triton-X100, 150 mM NaCl, phosphatase inhibitor cocktail (Cell Signaling (#58709S)), and 10% glycerol.”
# as §5
# [11] = system: AKT; experiment: Example 6 Test A: AKT phosphorylation, Panc-1 pancreatic cancer cells; assay type: cell-based; conditions: Panc-1 cells, 10 mM bCD (MBCD) 30 minutes, 25 mM glucose
# Procedure: as §1, with “overnight.” for “overnight. The buffer for immunoprecipitation comprises 20 mM Tris Ph 7.5, 1% Triton-X100, 150 mM NaCl, phosphatase inhibitor cocktail (Cell Signaling (#58709S)), and 10% glycerol.”
# as §5
# [12] = system: AKT; experiment: Example 6 Test A: AKT phosphorylation, A431 squamous cancer cells; assay type: cell-based; conditions: 10 mM bCD (MBCD) 30 minutes, 25 mM glucose
# Procedure: as §1, with “overnight.” for “overnight. The buffer for immunoprecipitation comprises 20 mM Tris Ph 7.5, 1% Triton-X100, 150 mM NaCl, phosphatase inhibitor cocktail (Cell Signaling (#58709S)), and 10% glycerol.”
# as §5
# [13] = system: EGFR, ERK1/2, and PI3K; experiment: Example 6 Test B: EGFR, ERK1/2 and PI3K activation in A431 cells; assay type: cell-based; conditions: bCD and/or 2DG, 10 mM each
# Procedure: as §1, with “overnight.” for “overnight. The buffer for immunoprecipitation comprises 20 mM Tris Ph 7.5, 1% Triton-X100, 150 mM NaCl, phosphatase inhibitor cocktail (Cell Signaling (#58709S)), and 10% glycerol.”
# as §5
# [14] = system: Panc-1 cells; experiment: Example 9: 2DG-bCD-TRAIL in Panc-1 cells, live cells by trypan-blue dye exclusion; assay type: cell-based; conditions: TRAIL 10 ng/ml alone
# Procedure: as §2
# (A) Panc-1 cells were treated with the standard 2DG-bCD-TRAIL protocol (FIG. 3). The live cells were distinguished from the dead cells by trypan-blue dye exclusion assays, and the live cells were counted, and graphed. The experiments were performed in triplicate and the error bars represent the standard deviations. (B) Western blots of Panc-1 cells left untreated, treated with TRAIL, treated with 2DG-bCD combination, and treated with the combination of 2DG-bCD-TRAIL as depicted in FIG. 3. The cells were harvested at hour 6. The experiments were repeated three times with similar results.
molecule,measurement,setting,value
OC[C@H]1O[C@@H]2O[C@H]3[C@H](O)[C@@H](O)[C@@H](O[C@H]4[C@H](O)[C@@H](O)[C@@H](O[C@H]5[C@H](O)[C@@H](O)[C@@H](O[C@H]6[C@H](O)[C@@H](O)[C@@H](O[C@H]7[C@H](O)[C@@H](O)[C@@H](O[C@H]8[C@H](O)[C@@H](O)[C@@H](O[C@H]1[C@H](O)[C@H]2O)O[C@@H]8CO)O[C@@H]7CO)O[C@@H]6CO)O[C@@H]5CO)O[C@@H]4CO)O[C@@H]3CO [β-cyclodextrin],AKT activation (phosphorylation),[1],lowered
same,enhancement of the combination effect of 2DG-ABT (live cells),[2],clearly enhanced
OC[C@H]1O[C@@H]2O[C@H]3[C@H](O)[C@@H](O)[C@@H](O[C@H]4[C@H](O)[C@@H](O)[C@@H](O[C@H]5[C@H](O)[C@@H](O)[C@@H](O[C@H]6[C@H](O)[C@@H](O)[C@@H](O[C@H]7[C@H](O)[C@@H](O)[C@@H](O[C@H]8[C@H](O)[C@@H](O)[C@@H](O[C@H]9[C@H](O)[C@@H](O)[C@@H](O[C@H]1[C@H](O)[C@H]2O)O[C@@H]9CO)O[C@@H]8CO)O[C@@H]7CO)O[C@@H]6CO)O[C@@H]5CO)O[C@@H]4CO)O[C@@H]3CO [γ-cyclodextrin],enhancement of the combination effect of 2DG-ABT (live cells),[2],little enhanced
methyl-β-cyclodextrin [bCD],process that IGF1 generates signal to AKT (AKT phosphorylation),[3],completely block
same,AKT activations,[4],considerably diminished
same,"activation of EGFR, IGF1R, and PI3K",[4],clearly activated
same,Ras-ERK proliferation signals,[5],intact
same,phosphorylation of AKT,[6],almost totally absent
same,AKT activities coming back after return to media without bCD,[7],did not take long
same,IGF1-induced hypoglycemia (blood glucose),[8],clearly attenuated
same,AKT phosphorylation,[9],attenuated
same,AKT phosphorylation,[10],attenuated
same,AKT phosphorylation,[11],attenuated
same,AKT phosphorylation,[12],attenuated
same,"EGFR, ERK1/2, and PI3K activation",[13],all activated
B1,effect on Panc-1 cells (live cells),[14],virtually no effect
